Data as given in patent US20250059205A1, “Heterocyclic Compounds and Methods of Use” (AMGEN INC., priority 2021, published 2025).

What was measured:
[1] = tested on: Phosphorylation of ERK1/2 in A-427 cells; test: Phospho-ERK1/2 MSD Assay (A-427 cells); assay type: cell-based; conditions: Homo sapiens, A-427, 2 h, 2 h treatment, read-out: p-ERK (A427 cells) IC50
Protocol: (§1) A-427 (ATCC® HTB-53™) cells were cultured in RPMI 1640 Medium (ThermoFisher Scientific 11875093) containing 10% fetal bovine serum (ThermoFisher Scientific 16000044) and 1× penicillin-streptomycin-glutamine (ThermoFisher Scientific 10378016). Sixteen hours prior to compound treatment, A-427 cells were seeded in 96-well cell culture plates at a density of 25,000 cells/well and incubated at 37° C., 5% CO2. A compound dose-response titration was diluted in growth media, added to appropriate wells of a cell culture plate, and then incubated at 37° C., 5% CO2 for 2 h. Following compound treatment, cells were washed with ice-cold Dulbecco's phosphate-buffered saline, no Ca^2+ or Mg^2+ (ThermoFisher Scientific 14190144), and then lysed in RIPA buffer (50 mM Tris-HCl pH 7.5, 1% Igepal, 0.5% sodium deoxycholate, 150 mM NaCl, and 0.5% sodium dodecyl sulfate) containing protease inhibitors (Roche 4693132001) and phosphatase inhibitors (Roche 4906837001). Phosphorylation of ERK1/2 in compound-treated lysates was assayed using Phospho-ERK1/2 Whole Cell Lysate kits (Meso Scale Discovery K151DWD) according to the manufacturer's protocol. Assay plates were read on a Meso Scale Discovery Sector Imager 6000, and data were analyzed using a 4-parameter logistic model to calculate IC50 values.

[2] = target: His-tagged KRAS G12D protein (Homo sapiens, UniProt P01116, G12D); test: KRAS G12D TR-FRET Assay; assay type: binding
[3] = target: GDP-bound KRAS protein (aa 1-169), containing both G12D and C118A amino acid substitutions (Homo sapiens, UniProt P01116, C118A/G12D); test: KRAS G12D Coupled Nucleotide Exchange Assay; assay type: biochemical; conditions: 2 h compound pre-incubation
Protocol: Following compound pre-incubation, purified SOS protein (aa 564-1049) and GTP (Roche 10106399001) were added to the assay wells and incubated for an additional 30 min. […] The assay plates were then read on a PerkinElmer EnVision Multilabel Reader, using AlphaScreen® technology, and data were analyzed using a 4-parameter logistic model to calculate IC50 values.

[4] = tested on: Phosphorylation of ERK1/2 in AsPC-1 cells; test: Phospho-ERK1/2 MSD Assay (AsPC-1 cells); assay type: cell-based; conditions: Homo sapiens, ASPC1, 2 h, 2 hours treatment, read-out: p-ERK (AsPC-1 cells) IC50
Protocol: as §1, with “AsPC-1” for “A-427”, “CRL-1682™)” for “HTB-53™)”, “hours.” for “h.”

GDP-bound KRAS protein (aa 1-169), containing both G12D and C118A amino acid substitutions, sequence (P01116 1-169 isoform P01116-2 G12D/C118A): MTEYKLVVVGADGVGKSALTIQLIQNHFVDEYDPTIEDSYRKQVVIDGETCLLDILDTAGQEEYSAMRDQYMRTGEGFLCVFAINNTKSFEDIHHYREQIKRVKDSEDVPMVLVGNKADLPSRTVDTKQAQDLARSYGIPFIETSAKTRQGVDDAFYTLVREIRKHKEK
His-tagged KRAS G12D protein, sequence (P01116 1-188 isoform P01116-2 G12D): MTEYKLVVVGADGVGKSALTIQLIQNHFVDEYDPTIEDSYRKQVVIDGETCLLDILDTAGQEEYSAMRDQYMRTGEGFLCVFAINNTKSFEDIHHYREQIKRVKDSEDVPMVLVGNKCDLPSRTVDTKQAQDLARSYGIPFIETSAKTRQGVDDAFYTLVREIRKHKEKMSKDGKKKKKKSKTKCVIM

SMILES | IC50 [1] [µM] | IC50 [2] [µM] | Avg 2 h Coupled Exchange IC50 [3] [µM] | IC50 [4] [µM]
CN1C[C@H](F)C[C@H]1COc1nc(N2[C@@H]3CNC[C@H]2COC3)c2ccc(-c3cc(O)cc4ccccc34)c(F)c2n1 [Example 6, 4-(4-((1R,5S)-3-oxa-7,9-diazabicyclo[3.3. 1]nonan-9-yl)-8-fluoro-2-(((2S,4R)-4-fluoro-1-methylpyrrolidin-2-yl)methoxy)quinazolin-7-yl)naphthalen-2-ol] | 2.31 | 0.049 | 0.022 | 5.13
CN1C[C@H](F)C[C@H]1COc1nc(N2C[C@H]3C[C@@H](C2)N3)c2ccc(-c3cc(O)cc4ccccc34)c(F)c2n1 [Example 7, 4-(4-((1R,5S)-3,6-diazabicyclo[3.1. 1]heptan-3-yl)-8-fluoro-2-(((2S,4R)-4-fluoro-1-methylpyrrolidin-2-yl)methoxy)quinazolin-7-yl)naphthalen-2-ol] | 3.51 | 0.075 | 0.035 | 3.3
Oc1cc(-c2ccc3c(N4C[C@H]5C[C@@H](C4)N5)nc(OCC45CCCN4CC(F)(F)C5)nc3c2F)c2ccccc2c1 (stereo partly drawn) [Example 8, 4-(4-((1R,5S)-3,6-diazabicyclo[3.1. 1]heptan-3-yl)-2-((2,2-difluorotetrahydro-1H-pyrrolizin-7a(5H)-yl)methoxy)-8-fluoroquinazolin-7-yl)naphthalen-2-ol] | 7.88 | 0.092 | 0.087 | 6.94
CN1CCC[C@H]1CCOc1nc(N2[C@@H]3CNC[C@H]2COC3)c2ccc(-c3cc(O)cc4ccccc34)c(F)c2n1 [Example 9, 4-(4-((1R,5S)-3-oxa-7,9-diazabicyclo[3.3. 1]nonan-9-yl)-8-fluoro-2-(2-((S)-1-methylpyrrolidin-2-yl)ethoxy)quinazolin-7-yl)naphthalen-2-ol] | > 25 | 0.456 | 0.125 | > 25
Oc1cc(-c2ccc3c(N4[C@@H]5CNC[C@H]4COC5)nc(OCC45CCCN4CC(F)(F)C5)nc3c2F)c2ccccc2c1 (stereo partly drawn) [Example 10, 4-(4-((1R,5S)-3-oxa-7,9-diazabicyclo[3.3. 1]nonan-9-yl)-2-((2,2-difluorotetrahydro-1H-pyrrolizin-7a(5H)-yl)methoxy)-8-fluoroquinazolin-7-yl)naphthalen-2-ol] | 5.24 | 0.106 | 0.132 | 6.27
Oc1cc(-c2ccc3c(N4[C@@H]5CC[C@H]4CNC5)nc(OC[C@@]45CCCN4C[C@H](F)C5)nc3c2)c2ccccc2c1 [Example 11, 4-(4-((1R,5S)-3,8-diazabicyclo[3.2. 1]octan-8-yl)-2-(((2R,7aS)-2-fluorotetrahydro-1H-pyrrolizin-7a(5H)-yl)methoxy)quinazolin-7-yl)naphthalen-2-ol] | 2.51 | 0.021 | 0.009 | 1.53
Oc1cc(-c2c(F)cc3c(N4C[C@H]5C[C@@H](C4)N5)nc(OC[C@@]45CCCN4C[C@H](F)C5)nc3c2F)c2ccccc2c1 [Example 13, 4-(4-((1R,5S)-3,6-diazabicyclo[3.1. 1]heptan-3-yl)-6,8-difluoro-2-(((2R,7aS)-2-fluorotetrahydro-1H-pyrrolizin-7a(5H)-yl)methoxy)quinazolin-7-yl)naphthalen-2-ol] | 0.238 | 0.007 | 0.006 | 1.73
Oc1cc(-c2c(F)cc3c(N4[C@@H]5CNC[C@H]4COC5)nc(OC[C@@]45CCCN4C[C@H](F)C5)nc3c2F)c2ccccc2c1 [Example 14, 4-(4-((1R,5S)-3-oxa-7,9-diazabicyclo[3.3.1]nonan-9-yl)-6,8-difluoro-2-(((2R,7aS)-2-fluorotetrahydro-1H-pyrrolizin-7a(5H)-yl)methoxy)quinazolin-7-yl)naphthalen-2-ol] | 0.274 | 0.009 | 0.008 | 0.762
Oc1cc(-c2c(F)cc3c(N4C[C@H]5COC[C@@H](C4)N5)nc(OC[C@@]45CCCN4C[C@H](F)C5)nc3c2F)c2ccccc2c1 [Example 15, 4-(4-((1R,5S)-3-oxa-7,9-diazabicyclo[3.3. 1]nonan-7-yl)-6,8-difluoro-2-(((2R,7aS)-2-fluorotetrahydro-1H-pyrrolizin-7a(5H)-yl)methoxy)quinazolin-7-yl)naphthalen-2-ol] | 1.55 | 0.02 | 0.014 | 3.22
CN1C[C@H](F)C[C@H]1COc1nc(N2[C@@H]3CC[C@H]2CNC3)c2cc(F)c(-c3cc(O)cc4ccccc34)c(F)c2n1 [Example 17, 4-(4-((1R,5S)-3,8-diazabicyclo[3.2. 1]octan-8-yl)-6,8-difluoro-2-(((2S,4R)-4-fluoro-1-methylpyrrolidin-2-yl)methoxy)quinazolin-7-yl)naphthalen-2-ol] | 1.29 | 0.026 | 0.017 | 0.949
CN1C[C@H](F)C[C@H]1COc1nc(N2[C@@H]3CNC[C@H]2COC3)c2cc(F)c(-c3cc(O)cc4ccccc34)c(F)c2n1 [Example 18, 4-(4-((1R,5S)-3-oxa-7,9-diazabicyclo[3.3. 1]nonan-9-yl)-6,8-difluoro-2-(((2S,4R)-4-fluoro-1-methylpyrrolidin-2-yl)methoxy)quinazolin-7-yl)naphthalen-2-ol] | 1.59 | 0.06 | 0.018 | 2.96
CN1C[C@H](F)C[C@H]1COc1nc(N2C[C@H]3C[C@@H](C2)N3)c2cc(F)c(-c3cc(O)cc4ccccc34)c(F)c2n1 [Example 19, 4-(4-((1R,5S)-3,6-diazabicyclo[3.1. 1]heptan-3-yl)-6,8-difluoro-2-(((2S,4R)-4-fluoro-1-methylpyrrolidin-2-yl)methoxy)quinazolin-7-yl)naphthalen-2-ol] | 1.79 | 0.058 | 0.028 | 2.09
Oc1cc(-c2c(F)cc3c(N4C[C@H]5C[C@@H](C4)N5)nc(OCC45CCCN4CC(F)(F)C5)nc3c2F)c2ccccc2c1 (stereo partly drawn) [Example 20, 4-(4-((1R,5S)-3,6-diazabicyclo[3.1. 1]heptan-3-yl)-2-((2,2-difluorotetrahydro-1H-pyrrolizin-7a(5H)-yl)methoxy)-6,8-difluoroquinazolin-7-yl)naphthalen-2-ol] | 7.28 | 0.087 | 0.04 | 5.56
CN1CCC[C@H]1CCOc1nc(N2C[C@H]3C[C@@H](C2)N3)c2cc(F)c(-c3cc(O)cc4ccccc34)c(F)c2n1 [Example 21, 4-(4-((1R,5S)-3,6-diazabicyclo[3.1. 1]heptan-3-yl)-6,8-difluoro-2-(2-((S)-1-methylpyrrolidin-2-yl)ethoxy)quinazolin-7-yl)naphthalen-2-ol] | 18.1 | 0.314 | 0.078 | 9.08
Fc1cc2c(N3[C@@H]4CC[C@H]3CNC4)nc(OC[C@@]34CCCN3C[C@H](F)C4)nc2c(F)c1-c1cccc2cccc(Cl)c12 [Example 22, 4-((1R,5S)-3,8-diazabicyclo[3.2. 1]octan-8-yl)-7-(8-chloronaphthalen-1-yl)-6,8-difluoro-2-(((2R,7aS)-2-fluorotetrahydro-1H-pyrrolizin-7a(5H)-yl)methoxy) quinazoline] | 2.66 | 0.017 | 0.014 | 2.35
